Assay [1] has as its system Cryptococcus neoformans. As to conditions: Hariri 1976, cited from earlier work.
For another assay, the system named is Plasmodium species. As to conditions: Hariri 1976; cited from earlier work.
For assay [2], the system named is Cryptococcus neoformans. As to conditions: Hariri 1976; cited from earlier work.
In assay [3] the test system is Penicillium citrinum (9849). Kind of assay: Broth dilution assay, F19. In kind it is cell-based. How it is done:
(§1) Both broth dilution and agar dilution assays were used to assess the antifungal activity of the compounds of the invention. The cultures were maintained in Sabouraud dextrose broth (SDB) and diluted with […]. 2.5 l of SDB was prepared and distributed into sterile vessels as follows: 49 ml into 1 vessel, 27 ml into 3 vessels, 45 ml into 2 vessels.
(§2) Five mg/ml concentration of each compound was prepared using DMSO as the solvent; warming and sonication were necessary to dissolve each compound completely. The compounds were then diluted in SDB according to the following protocol:
(§3) 5. 1 ug/ml--5 ml (3)+45 ml SDB
(§4) The compound at each concentration in SDB was then dispensed into 6 tubes each containing 4 ml […]. Controls (without any compound) were also prepared to insure that the solvent itself was not fungicidal or fungistatic.
(§5) Cultures were grown in SDB for 24 h at 30° C. C. albicans and C. neoformans were diluted 1:10 in SDB before inoculation. Inoculation volume for yeasts was 2 drops of diluted cells per tube. The fungal cultures were homogenized before inoculation. The same volume was added, but without dilution. All tubes were incubated at room temperature on a rotating wheel. After 16 h of incubation at room temperature, the fungistatic assay was set up on agar plates. […] Yeasts were inoculated onto SDA (the corresponding agar) plates and fungi onto mycosel agar plates. These plates were then incubated at room temperature.
(In general: In broth dilution the organism is exposed to a series of concentrations in liquid medium.)

A further assay deals with Candida albicans (14053). The assay can be described thus: Broth dilution assay, F2. In kind it is cell-based. As for the experimental part: as §1, §2, §3, §4, §5
For assay [4], the system named is Epidermophyton floccosum (15693). Kind of assay: Broth dilution assay, F4. In kind it is cell-based. How it is done: as §1, §2, §3, §4, §5
Assay [5] has as its system Trichophyton mentagrophytes (11481). The assay can be described thus: Broth dilution assay, F6. In kind it is cell-based. How it is done:
as §1, §2, §3, §4, §5

In another assay the test system is fungi. Kind of assay: Broth dilution assay, whole panel. As to conditions: Tables 1 and 2. In kind it is cell-based. How it is done:
as §1, §2, §3, §4
Cultures were grown in SDB for 24 h at 30° C. C. albicans and C. neoformans were diluted 1:10 in SDB before inoculation. Inoculation volume for yeasts was 2 drops of diluted cells per tube. The fungal cultures were homogenized before inoculation. The same volume was added, but without dilution. All tubes were incubated at room temperature on a rotating wheel. After 16 h of incubation at room temperature, the fungistatic assay was set up on agar plates. […] Yeasts were inoculated onto SDA (the corresponding agar) plates and fungi onto mycosel agar plates. […]

The test system of a further assay is Candida albicans (10231). Kind of assay: Broth dilution assay, F1. The class given is cell-based. How it is done:
as §1, §2, §3, §4, §5

Assay [6] concerns Microsporum gypseum (14683). Kind of assay: Broth dilution assay, F12. The class given is cell-based. As to conditions: Nannizzia gypsea. As for the experimental part: as §1, §2, §3, §4, §5
The test system of assay [7] is Cryptococcus neoformans (13690). The assay can be described thus: Broth dilution assay, F3. In kind it is cell-based. As for the experimental part:
as §1, §2, §3, §4, §5

For a further assay, the system named is Candida species. As to conditions: with SMX, against Candida; Castaldo 1979; cited from earlier work.

This is an account of results in patent publication US4818753A, “Synthesis and method of use for 2, 4 diaminoquinazoline” (SRI International, priority 1987, dated 1989).

Values after ≈ are worked out from the molar mass of the structure shown. Where two headings read alike, the source gives them in different places. Where only a bound is given, the exact number is not on record here.

Turning to `Nc1nc(N)c2cc(NC(=O)Cc3ccc(Cl)c(Cl)c3)ccc2n1` [2,4-diamino-6-(2-(3,4-dichlorophenyl)acetamido)quinazoline], the “minimum inhibitory concentration (MIC)” value in the assay with Cryptococcus neoformans [1] (C. neoformans) is 6 to 8 µg/mL. Also, the in vitro activity entry with Cryptococcus neoformans [1] (in vitro) was “active in vitro and in vivo”. In the assay with Plasmodium species, the “activity against Plasmodium” value is given as “no activity”. For the same compound, the in vivo activity entry in the assay with Cryptococcus neoformans [2] was “active in vitro and in vivo”.
Turning to `CCCCCCc1ccc2nc(N)nc(N)c2c1C` [--CH2 (CH2)4 CH3, 2,4-Diamino-5-methyl-6-n-hexylquinazoline], the MIC worked out at 100 µg/mL (≈ 387 µM) in assay [3] (Table 1, F19, Sabouraud Dextrose Broth pH 5.5, read-out: Minimum Inhibitory Concentration (S, fungistatic)); 30 µg/mL (≈ 116 µM) with Candida albicans (14053) (Table 1, F2, Sabouraud Dextrose Broth pH 5.5, read-out: Minimum Inhibitory Concentration (S, fungistatic)); 3 µg/mL (≈ 11.6 µM) in [4] (Table 1, F4, Sabouraud Dextrose Broth pH 5.5, read-out: Minimum Inhibitory Concentration (S, fungistatic)); 30 µg/mL (≈ 116 µM) in assay [5] (Table 1, F6, Sabouraud Dextrose Broth pH 5.5, read-out: Minimum Inhibitory Concentration (S, fungistatic)); 30 µg/mL (≈ 116 µM) in assay [5] (Table 2, F6, Sabouraud Dextrose Broth pH 5.5, read-out: S Fungistatic); 30 µg/mL (≈ 116 µM) with Candida albicans (10231) (Table 1, F1, Sabouraud Dextrose Broth pH 5.5, read-out: Minimum Inhibitory Concentration (S, fungistatic)). Moreover, the MIC in the assay on Candida albicans (10231) (Table 2, F1, Sabouraud Dextrose Broth pH 5.5, read-out: S Fungistatic) stood at 30 µg/mL (≈ 116 µM); in assay [6] (Table 1, Sabouraud Dextrose Broth pH 5.5, read-out: Minimum Inhibitory Concentration (S, fungistatic)) it was 10 µg/mL (≈ 38.7 µM); in [6] (Table 2, Sabouraud Dextrose Broth pH 5.5, read-out: S Fungistatic) it was 30 µg/mL (≈ 116 µM); in assay [7] (Table 1, F3, Sabouraud Dextrose Broth pH 5.5, read-out: Minimum Inhibitory Concentration (S, fungistatic)), 3 µg/mL (≈ 11.6 µM); in assay [7] (Table 2, F3, Sabouraud Dextrose Broth pH 5.5, read-out: S Fungistatic), 3 µg/mL (≈ 11.6 µM). Further, the MFC in assay [3] (Table 1, F19, Sabouraud Dextrose Broth pH 5.5, read-out: Minimum Lethal Concentration (C, fungicidal)) is 100 µg/mL (≈ 387 µM); in the assay on Candida albicans (14053) (Table 1, F2, Sabouraud Dextrose Broth pH 5.5, read-out: Minimum Lethal Concentration (C, fungicidal)) it was 30 µg/mL (≈ 116 µM); in assay [4] (Table 2, F4, Sabouraud Dextrose Broth pH 5.5, read-out: C Fungicidal), 30 µg/mL (≈ 116 µM); in [5] (Table 1, F6, Sabouraud Dextrose Broth pH 5.5, read-out: Minimum Lethal Concentration (C, fungicidal)) it was > 30 µg/mL; in assay [5] (Table 2, F6, Sabouraud Dextrose Broth pH 5.5, read-out: C Fungicidal), 30 µg/mL (≈ 116 µM); in the assay on Candida albicans (10231) (Table 1, F1, Sabouraud Dextrose Broth pH 5.5, read-out: Minimum Lethal Concentration (C, fungicidal)), 30 µg/mL (≈ 116 µM). Also, the MFC in the assay with Candida albicans (10231) (Table 2, F1, Sabouraud Dextrose Broth pH 5.5, read-out: C Fungicidal) is > 100 µg/mL; in [6] (Table 1, Sabouraud Dextrose Broth pH 5.5, read-out: Minimum Lethal Concentration (C, fungicidal)), 30 µg/mL (≈ 116 µM); in assay [6] (Table 2, Sabouraud Dextrose Broth pH 5.5, read-out: C Fungicidal), 100 µg/mL (≈ 387 µM); in [7] (Table 1, F3, Sabouraud Dextrose Broth pH 5.5, read-out: Minimum Lethal Concentration (C, fungicidal)) it was 10 µg/mL (≈ 38.7 µM); in assay [7] (Table 2, F3, Sabouraud Dextrose Broth pH 5.5, read-out: C Fungicidal) it was 3 µg/mL (≈ 11.6 µM). Also, the “fungicidal and fungistatic activity in words” value with fungi was “best fungicidal and fungistatic activity”.
`Nc1nc(N)c2c(ccc3c2ccn3CC2CC2)n1` [N-cyclopropylmethyl-5,6-pyrrolo-2,4-diaminoquinazoline]: the “synergistic activity in presence of sulfamethoxazole (SMX)” value in the assay with Candida species is listed as “synergistic activity”.
